Assay results as given in ChEMBL document CHEMBL5537196, “Discovery of KIN-3248, An Irreversible, Next Generation FGFR Inhibitor for the Treatment of Advanced Tumors Harboring FGFR2 and/or FGFR3 Gene Alterations” (J Med Chem, 2024).
Converted amounts (≈) assume the structure as drawn. One block for each compound: values may come before it.

What was measured:
[1] = Toxicity in mouse xenografted with human SNU-16 cells assessed as body weight change at 2 to 15 mg/kg,po administrated once daily for 3 weeks; assay type: organism-based; settings: in vivo, 504 h, dose 2-15 mg/kg
[2] = Lipophilicity, logP of compound; assay type: physicochemical; settings: octanol/water
[3] = tested on: RT-112; assay: Antitumor activity against human RT-112 cells xenografted in mouse assessed as tumor growth inhibition at 5 mg/kg,po administrated once daily for 3 weeks relative to control; assay type: functional; settings: RT-112, 504 h, read-out: TGI
[4] = Total clearance in Sprague-Dawley rat at 5 mg/kg,iv administrated at 0.25 to 24 hrs by LC-MS/MS analysis; assay type: ADME, organism-based; settings: in vivo, time 0.25-24 hrs
[5] = tested on: SNU-16; assay: Antitumor activity against human SNU-16 cells xenografted in mouse assessed as tumor growth inhibition at 5 mg/kg,po administrated once daily for 3 weeks relative to control; assay type: functional; settings: SNU-16, 504 h, read-out: TGI
[6] = Antitumor activity against patient derived STO357 PDX cells xenografted in mouse assessed as tumor growth inhibition at 5 mg/kg,po administrated once daily for 3 weeks relative to control; assay type: functional; settings: Homo sapiens, 504 h, read-out: TGI
[7] = Total clearance in Beagle dog at 5 mg/kg,iv administrated at 0.25 to 24 hrs by LC-MS/MS analysis; assay type: ADME, organism-based, Canis lupus familiaris; settings: in vivo, time 0.25-24 hrs
[8] = Antitumor activity against patient derived STO357 PDX cells xenografted in mouse assessed as downregulation of ERK phosphorylation at 5 mg/kg,po administration and measured after 7 hrs by MSD assay; assay type: functional, Homo sapiens
[9] = Intrinsic clearance in human hepatocyte measured per 10^6 cells; assay type: ADME, cell-based; settings: hepatocytes, read-out: CLH
[10] = Aqueous solubility of the compound at pH 7.4; assay type: physicochemical
[11] = Cmax in Beagle dog at 15 mg/kg,po administrated at 0.25 to 24 hrs by LC-MS/MS analysis; assay type: ADME, organism-based, Canis lupus familiaris; settings: in vivo, time 0.25-24 hrs
[12] = tested on: SNU-16; assay: Antitumor activity against human SNU-16 cells xenografted in mouse assessed as inhibition of tumor growth at po administrated once daily for 3 weeks; assay type: functional, organism-based
[13] = Solubility of compound in FeSSIF; assay type: ADME
[14] = AUC (0 to 24 hrs) in Sprague-Dawley rat at 15 mg/kg,po administrated at 0.25 to 24 hrs by LC-MS/MS analysis; assay type: ADME, organism-based; settings: in vivo, time 0.25-24 hrs
[15] = tested on: RT-112; assay: Antitumor activity against human RT-112 cells xenografted in mouse assessed as tumor growth inhibition at 2 mg/kg,po administrated once daily for 3 weeks relative to control; assay type: functional; settings: RT-112, 504 h, read-out: TGI
[16] = AUC (0 to 24 hrs) in Beagle dog at 15 mg/kg,po administrated at 0.25 to 24 hrs by LC-MS/MS analysis; assay type: ADME, organism-based, Canis lupus familiaris; settings: in vivo, time 0.25-24 hrs
[17] = Oral bioavailability in Sprague-Dawley rat at 15 mg/kg administrated at 0.25 to 24 hrs by LC-MS/MS analysis; assay type: ADME, organism-based; settings: in vivo, time 0.25-24 hrs
[18] = Half life in Beagle dog at 5 mg/kg,iv administrated at 0.25 to 24 hrs by LC-MS/MS analysis; assay type: ADME, organism-based, Canis lupus familiaris; settings: in vivo, time 0.25-24 hrs
[19] = Cmax in Sprague-Dawley rat at 15 mg/kg,po administrated at 0.25 to 24 hrs by LC-MS/MS analysis; assay type: ADME, organism-based; settings: in vivo, time 0.25-24 hrs
[20] = tested on: RT-112; assay: Antitumor activity against human RT-112 cells xenografted in mouse assessed as tumor growth inhibition at 15 mg/kg,po administrated once daily for 3 weeks relative to control; assay type: functional; settings: RT-112, 504 h, read-out: TGI
[21] = Oral bioavailability in Beagle dog at 15 mg/kg administrated at 0.25 to 24 hrs by LC-MS/MS analysis; assay type: ADME, organism-based, Canis lupus familiaris; settings: in vivo, time 0.25-24 hrs
[22] = Solubility of compound in FaSSIF; assay type: ADME
[23] = Aqueous solubility of the compound at pH 2; assay type: physicochemical
[24] = Unbound drug concentration in mouse plasma xenografted with patient derived STO357 PDX cells at 15 mg/kg,po administration and measured after 12 hr by LC-MS/MS analysis; assay type: ADME, organism-based; settings: in vivo
[25] = tested on: SNU-16; assay: Antitumor activity against human SNU-16 cells xenografted in mouse assessed as tumor growth inhibition at 2 mg/kg,po administrated once daily for 3 weeks relative to control; assay type: functional; settings: SNU-16, 504 h, read-out: TGI
[26] = Half life in Sprague-Dawley rat at 5 mg/kg,iv administrated at 0.25 to 24 hrs by LC-MS/MS analysis; assay type: ADME, organism-based; settings: in vivo, time 0.25-24 hrs
[27] = tested on: SNU-16; assay: Antitumor activity against human SNU-16 cells xenografted in mouse assessed as tumor growth inhibition at 15 mg/kg,po administrated once daily for 3 weeks relative to control; assay type: functional; settings: SNU-16, 504 h, read-out: TGI
[28] = Unbound drug concentration in mouse plasma xenografted with patient derived STO357 PDX cells at 15 mg/kg,po administration and measured after 1 hr by LC-MS/MS analysis; assay type: ADME, organism-based; settings: in vivo
[29] = tested on: RT-112; assay: Antitumor activity against human RT-112 cells xenografted in mouse assessed as inhibition of tumor growth at po administrated once daily for 3 weeks; assay type: functional, organism-based
[30] = Unbound drug concentration in mouse plasma xenografted with patient derived STO357 PDX cells at 15 mg/kg,po administration and measured after 15 mins by LC-MS/MS analysis; assay type: ADME, organism-based; settings: in vivo, 0.25 h
[31] = Toxicity in mouse xenografted with human RT-112 cells assessed as body weight loss at 15 mg/kg,po administrated once daily for 3 weeks; assay type: organism-based; settings: in vivo, 504 h
[32] = Intrinsic clearance in human liver microsomes; assay type: ADME, Microsome; settings: read-out: CLH
[33] = Toxicity in mouse xenografted with patient derived STO357 PDX cells assessed as body weight change at 5 to 15 mg/kg,po administrated once daily for 3 weeks; assay type: organism-based; settings: in vivo, 504 h, dose 5-15 mg/kg
[34] = Solubility of compound in SGF; assay type: ADME
[35] = Dissociation constant, pKa of the compound; assay type: physicochemical
[36] = Antitumor activity against patient derived STO357 PDX cells xenografted in mouse assessed as downregulation of ERK phosphorylation at 15 mg/kg,po administration and measured after 7 hrs by MSD assay; assay type: functional, Homo sapiens
[37] = tested on: CC-LP-1; assay: Antiproliferative activity against human CC-LP-1 cells expressing FGFR2 N550K mutant assessed as inhibition of cell growth incubated for 3 days by Cell-titer glo assay; settings: CC-LP-1, 72 h
[38] = Antiproliferative activity against human ICC13-7 cells expressing FGFR2 N550K mutant assessed as inhibition of cell growth incubated for 10 days by Cell-titer glo assay; settings: ICC13-7, 240 h
[39] = tested on: CC-LP-1; assay: Antiproliferative activity against human CC-LP-1 cells expressing FGFR2 V565F mutant assessed as inhibition of cell growth incubated for 3 days by Cell-titer glo assay; settings: CC-LP-1, 72 h
[40] = tested on: RT-112; assay: Antiproliferative activity against human RT-112 cells expressing FGFR3 N540K mutant assessed as inhibition of cell growth incubated for 5 days by Cell-titer glo assay; settings: RT-112, 120 h
[41] = tested on: RT-112; assay: Antiproliferative activity against human RT-112 cells expressing FGFR3 K650M mutant assessed as inhibition of cell growth incubated for 5 days by Cell-titer glo assay; settings: RT-112, 120 h
[42] = tested on: RT-112; assay: Antiproliferative activity against human RT-112 cells expressing FGFR3 assessed as inhibition of cell growth incubated for 5 days by Cell-titer glo assay; settings: RT-112, 120 h
[43] = Antiproliferative activity against human ICC13-7 cells expressing FGFR2 V565F mutant assessed as inhibition of cell growth incubated for 10 days by Cell-titer glo assay; settings: ICC13-7, 240 h
[44] = Antiproliferative activity against human ICC13-7 cells assessed as inhibition of cell growth incubated for 3 days by Cell-titer glo assay; settings: ICC13-7, 72 h
[45] = tested on: CC-LP-1; assay: Antiproliferative activity against human CC-LP-1 cells assessed as inhibition of cell growth incubated for 3 days by Cell-titer glo assay; settings: CC-LP-1, 72 h
[46] = Antitumor activity against patient derived STO357 PDX cells xenografted in mouse assessed as tumor growth inhibition at 6 mg/kg,po administrated once daily for 3 weeks relative to control; settings: Homo sapiens, 504 h, read-out: TGI
[47] = tested on: SNU-16; assay: Antiproliferative activity against human SNU-16 cells assessed as inhibition of cell growth incubated for 5 days by Cell-titer glo assay; settings: SNU-16, 120 h
[48] = tested on: RT-112; assay: Antiproliferative activity against human RT-112 cells assessed as inhibition of cell growth incubated for 5 days by Cell-titer glo assay; settings: RT-112, 120 h
[49] = tested on: RT-112; assay: Antiproliferative activity against human RT-112 cells expressing FGFR3 V555M mutant assessed as inhibition of cell growth incubated for 5 days by Cell-titer glo assay; settings: RT-112, 120 h
[50] = tested on: CC-LP-1; assay: Antiproliferative activity against human CC-LP-1 cells expressing FGFR2 N550H mutant assessed as inhibition of cell growth incubated for 3 days by Cell-titer glo assay; assay type: functional, cell-based; settings: CC-LP-1, 72 h

logP [2]: 2.5
clearance [4]: 16.1 mL/min/kg
clearance [7]: 23.9 mL/min/kg
hepatocyte CLint [9]: 7.2 µL/min/1e6 cells
solubility [10]: 69.7 µM (≈ 36.5 µg/mL)
Cmax [11]: 815 ng/mL
solubility [13]: 300 µg/mL (≈ 573 µM)
AUC(0-t) [14]: 3740 ng·h/mL
AUC(0-t) [16]: 2100 ng·h/mL
bioavailability [17]: 24.3%
half-life [18]: 6.89 h
Cmax [19]: 1490 ng/mL
bioavailability [21]: 17.5%
solubility [22]: 400 µg/mL (≈ 764 µM)
solubility [23]: 301 µM (≈ 158 µg/mL)
Drug uptake(free) [24]: Not Active
half-life [26]: 5.46 h
Cp(f) [28]: ~ 50 ng/ml
Cp(f) [30]: ~ 100 ng/ml
microsomal CLint [32]: 59.6 µL/min/mg
solubility [34]: 800 µg/mL (≈ 1530 µM)
pKa [35]: 2.22
Compound: C=CC(=O)N1C[C@@H](n2nc(C#Cc3c(F)cc4c(ncn4C4CC4)c3F)c(C(N)=O)c2NC)C[C@@H]1COC [RESIGRATINIB]
Activity [1]: Non-Toxic
inhibition in vivo at 5 mg/kg [3]: 91%
inhibition in vivo at 5 mg/kg [5]: 81%
inhibition in vivo at 5 mg/kg [6]: 90%
Activity [8]: 25%
Activity [12]: Dose-Dependent Effect
inhibition in vivo at 2 mg/kg [15]: 80%
inhibition in vivo at 15 mg/kg [20]: 99%
inhibition in vivo at 2 mg/kg [25]: 69%
inhibition in vivo at 15 mg/kg [27]: 93%
Activity [29]: Dose-Dependent Effect
Activity [31]: 5.4%
Activity [33]: Non-Toxic
Activity [36]: 75%

Compound: C=CC(=O)N1CC[C@H](n2nc(C#Cc3cc(OC)cc(OC)c3)c3c(N)ncnc32)C1 [FUTIBATINIB]
IC50 [37]: 5.5 nM
IC50 [38]: 13.8 nM
IC50 [39]: 105 nM
IC50 [40]: 73.4 nM
IC50 [41]: 74.3 nM
IC50 [42]: 19.6 nM
IC50 [43]: 143 nM
IC50 [44]: 1.8 nM
IC50 [45]: 1.3 nM
inhibition in vivo at 6 mg/kg [46]: 48%
IC50 [47]: 4.7 nM
IC50 [48]: 6.7 nM
IC50 [49]: 390 nM
IC50 [50]: 1.4 nM
